The source of these data is PubChem BioAssay (NCI).

Among the test systems are MDA-MB-231 breast; HCT-116 colon; RXF 393 renal; PC-3 prostate; SW-620 colon; SNB-75 CNS; MOLT-4 leukemia; MCF7 breast; EKVX NSCLC; SNB-19 CNS.
Holding throughout (test): inhibition of tumour cell growth, NCI panel, 48 h

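Each compound was tested at five concentrations against cells in 96-well plates for 48 hours. GI50 is the concentration that inhibits growth by half. Definition used: TGI = concentration required for complete inhibition of growth.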

As for `N#Cc1c(C#N)c(-c2ccccc2)n(-c2ccccc2)c1N`, the TGI is above 100 µM with MDA-MB-231 breast; above 100 µM in the assay on HCT-116 colon; above 100 µM in the assay on RXF 393 renal; above 100 µM in the assay on PC-3 prostate; above 100 µM with SW-620 colon; 86.4 µM in the assay on SNB-75 CNS. The TGI in the assay on MOLT-4 leukemia, with MCF7 breast, in the assay on EKVX NSCLC and with SNB-19 CNS was above 100 µM in each case.

Turning to `CC1=CC(=O)C(C(O)(C(F)(F)F)C(F)(F)F)C(C)(C)C1` (configuration not stated), the TGI in the assay with MDA-MB-231 breast, with HCT-116 colon, with RXF 393 renal, in the assay with PC-3 prostate, in the assay with SW-620 colon and in the assay with SNB-75 CNS was above 10 µM throughout. Moreover, the TGI with MOLT-4 leukemia, with MCF7 breast, in the assay with EKVX NSCLC and with SNB-19 CNS was above 10 µM each time.

Turning to `Cc1nn(C(=O)c2ccc(Cl)cc2)c2c1C(c1ccc(O)cc1)SC(N)=N2` (configuration not stated), the TGI with MDA-MB-231 breast, in the assay on HCT-116 colon, in the assay with RXF 393 renal, with PC-3 prostate, with SW-620 colon and in the assay on SNB-75 CNS was above 10 µM in each case. In addition, the TGI with MOLT-4 leukemia, with MCF7 breast, in the assay on EKVX NSCLC and with SNB-19 CNS was above 10 µM each time.

Regarding `COc1ccc(/C=N/N2C(=O)c3c(N)c(C#N)c(-c4ccccc4)c(-c4ccccc4)c3C2=O)cc1`, the TGI in the assay on MDA-MB-231 breast, with HCT-116 colon, with RXF 393 renal, with PC-3 prostate, in the assay with SW-620 colon and in the assay with SNB-75 CNS was above 100 µM throughout. In addition, the TGI in the assay with MOLT-4 leukemia, in the assay on MCF7 breast, in the assay on EKVX NSCLC and in the assay with SNB-19 CNS was above 100 µM in each case.

Turning to `CC1C(c2ccc3c(c2)OCO3)c2cc3c(cc2OC1N1CCOCC1)OCO3` (configuration not stated), the TGI in the assay with MDA-MB-231 breast was above 100 µM; with HCT-116 colon it was 47.3 µM; in the assay on RXF 393 renal, 51.9 µM; in the assay with PC-3 prostate it was above 100 µM; in the assay with SW-620 colon, above 100 µM; in the assay with SNB-75 CNS, 99.3 µM. The TGI in the assay on MOLT-4 leukemia was 66.9 µM; in the assay on MCF7 breast, 65.8 µM; in the assay on EKVX NSCLC, above 100 µM; in the assay on SNB-19 CNS it was 86.5 µM.

As to `COC(=O)c1cc2c(cc1CC(Cc1ccc3c(c1)CCC3)C(=O)OC)CCC2` (configuration not stated), the TGI in the assay on MDA-MB-231 breast was above 100 µM; with HCT-116 colon, above 100 µM; in the assay with RXF 393 renal, 65.3 µM; in the assay on PC-3 prostate, above 100 µM; in the assay with SW-620 colon, above 100 µM; in the assay on SNB-75 CNS it was above 100 µM. Besides, the TGI in the assay with MOLT-4 leukemia was above 100 µM; with MCF7 breast, 92.7 µM; in the assay with EKVX NSCLC, above 100 µM; in the assay on SNB-19 CNS it was above 100 µM.

Consider `COc1ccc(N=Nc2c3c(c(O)c4ccccc24)CCC(C)(C)O3)cc1`, for which the TGI in the assay with MDA-MB-231 breast is 63.9 µM; with HCT-116 colon, 28.9 µM; with RXF 393 renal it was 34 µM; in the assay with PC-3 prostate, 87 µM; in the assay with SW-620 colon it was above 100 µM; in the assay with SNB-75 CNS, 52.9 µM. The TGI in the assay on MOLT-4 leukemia is above 100 µM; in the assay with MCF7 breast it was 29.5 µM; in the assay on EKVX NSCLC, 54.1 µM; in the assay on SNB-19 CNS, 50.4 µM.

`COc1cc(OCc2ccc3nc(OC)c(OC)nc3c2)cc(OC)c1OC`: the TGI with MDA-MB-231 breast is above 10 µM; in the assay on HCT-116 colon, above 10 µM; in the assay with RXF 393 renal, above 10 µM; in the assay with PC-3 prostate, above 4.95 µM; in the assay with SW-620 colon it was above 10 µM; in the assay with SNB-75 CNS, above 10 µM. In addition, the TGI in the assay on MOLT-4 leukemia, in the assay on MCF7 breast, in the assay on EKVX NSCLC and with SNB-19 CNS was above 10 µM throughout.

As for `O=C1CCCc2cc3c(cc21)CC1(C3)Cc2ccc3c(c2C1)C(=O)CCC3` (configuration not stated), the TGI in the assay on MDA-MB-231 breast was above 100 µM; in the assay on HCT-116 colon it was above 100 µM; in the assay on RXF 393 renal it was above 100 µM; with PC-3 prostate it was above 100 µM; in the assay on SW-620 colon it was above 100 µM; with SNB-75 CNS, 80.4 µM. Further, the TGI is 22.7 µM in the assay on MOLT-4 leukemia, 42.8 µM in the assay on MCF7 breast, above 100 µM in the assay on EKVX NSCLC and above 100 µM in the assay on SNB-19 CNS.

On to `O=C(CCCN1CCC2(CC1)C(=NC1CCCCC1)NC(=O)N2c1ccccc1)c1ccc(F)cc1`, for which the TGI is 26.1 µM with MDA-MB-231 breast; 46.1 µM in the assay with HCT-116 colon; 89 µM with RXF 393 renal; 43.3 µM in the assay with PC-3 prostate; above 100 µM in the assay on SW-620 colon; 56 µM in the assay on SNB-75 CNS. The TGI in the assay on MOLT-4 leukemia is 57.2 µM; in the assay on MCF7 breast, 33.1 µM; in the assay on EKVX NSCLC it was above 100 µM; in the assay on SNB-19 CNS it was above 100 µM.

As to `CN(C)P(=O)(Oc1occc1C(O)Cc1ccccc1)N(C)C` (configuration not stated), the TGI in the assay on MDA-MB-231 breast, in the assay with HCT-116 colon, in the assay with RXF 393 renal, with PC-3 prostate, in the assay with SW-620 colon and in the assay on SNB-75 CNS was above 100 µM throughout. Further, the TGI in the assay on MCF7 breast, in the assay on EKVX NSCLC and in the assay on SNB-19 CNS was above 100 µM each time.

For the molecule `CC1(C)[C@@H](Cn2cnc3c(Cl)nc(N)nc32)CC[C@@]1(C)CO`, the TGI in the assay with MDA-MB-231 breast, in the assay on HCT-116 colon, in the assay with RXF 393 renal, in the assay on PC-3 prostate, with SW-620 colon and in the assay on SNB-75 CNS was above 100 µM each time. Moreover, the TGI in the assay with MCF7 breast, with EKVX NSCLC and in the assay on SNB-19 CNS was above 100 µM in each case.

On to `Clc1ccc(Cl)c(SCCCN2CCNCC2)c1`, for which the TGI worked out at 31.7 µM in the assay with MDA-MB-231 breast; 41.5 µM with HCT-116 colon; 32.4 µM in the assay on RXF 393 renal; 29.7 µM in the assay on PC-3 prostate; 56.7 µM in the assay with SW-620 colon; 35.3 µM with SNB-75 CNS. The TGI in the assay on MOLT-4 leukemia amounted to 40.6 µM; in the assay on MCF7 breast it was 40 µM; in the assay with EKVX NSCLC it was 34.7 µM; in the assay on SNB-19 CNS, 34.4 µM.

In the case of `O=C(Nc1ccc(-n2cc(-c3ccncc3)c(-c3ccc(O)c(Cl)c3)n2)cc1)Nc1cccc(Cl)c1Cl`, the GI50 with MDA-MB-231 breast is 1520 nM; in the assay on HCT-116 colon it was 3.26 µM; with RXF 393 renal, 973 nM; in the assay with PC-3 prostate, 1730 nM; in the assay with SW-620 colon it was 20.6 µM; in the assay with SNB-75 CNS, 5.51 µM. Also, the GI50 in the assay on MOLT-4 leukemia was 3.7 µM; in the assay with MCF7 breast it was 4.2 µM; with EKVX NSCLC it was 9.99 µM; in the assay with SNB-19 CNS, 15.8 µM. For the same molecule, the TGI with MDA-MB-231 breast was 10.3 µM; in the assay with HCT-116 colon it was 21.6 µM; with RXF 393 renal, 5.25 µM; with PC-3 prostate, 14.3 µM; in the assay with SW-620 colon it was above 32.5 µM; with SNB-75 CNS it was above 32.5 µM. For the same molecule, the TGI with MOLT-4 leukemia, in the assay with MCF7 breast, with EKVX NSCLC and with SNB-19 CNS was above 32.5 µM each time.

For the molecule `COc1c(O)c(O)cc2c1-c1ccc(OC)c(=O)cc1C(NC(C)=O)CC2` (configuration not stated), the TGI in the assay on MDA-MB-231 breast is above 59.4 µM; in the assay with HCT-116 colon, 25.6 µM; with RXF 393 renal, above 41.2 µM; in the assay with PC-3 prostate, above 100 µM; in the assay with SW-620 colon, 63.3 µM; in the assay with SNB-75 CNS, 63.9 µM. Besides, the TGI in the assay with MOLT-4 leukemia is 43.6 µM; in the assay with MCF7 breast, 11.9 µM; in the assay with EKVX NSCLC it was 98.2 µM; in the assay with SNB-19 CNS it was above 100 µM.

On to `CC(O)CC(O)(C(F)(F)F)C(F)(F)F` (configuration not stated), for which the TGI in the assay on MDA-MB-231 breast, with HCT-116 colon, in the assay with RXF 393 renal, with PC-3 prostate, in the assay with SW-620 colon and in the assay with SNB-75 CNS was above 10 µM each time. Further, the TGI in the assay with MOLT-4 leukemia, with MCF7 breast, with EKVX NSCLC and with SNB-19 CNS was above 10 µM in each case.

`COC(=O)c1cc(C)ccc1CC(Cc1ccc(C)cc1)C(=O)OC` (configuration not stated): the TGI is above 100 µM in the assay on MDA-MB-231 breast; above 100 µM in the assay with HCT-116 colon; 11.5 µM with RXF 393 renal; above 100 µM in the assay with PC-3 prostate; above 100 µM with SW-620 colon; above 90.7 µM in the assay on SNB-75 CNS. In addition, the TGI was above 49.5 µM in the assay with MOLT-4 leukemia, above 31.6 µM in the assay on MCF7 breast, above 100 µM in the assay with EKVX NSCLC and above 100 µM in the assay with SNB-19 CNS.

In the case of `O=C(CNCc1ccccc1)Oc1c(Cl)c(Cl)c(Cl)c(Cl)c1Cl`, the TGI was 69.1 µM with MDA-MB-231 breast; above 100 µM in the assay on HCT-116 colon; above 100 µM with RXF 393 renal; 48.1 µM with PC-3 prostate; 84.5 µM with SW-620 colon; above 100 µM in the assay with SNB-75 CNS. In addition, the TGI in the assay on MOLT-4 leukemia was 50.6 µM; in the assay on MCF7 breast, above 100 µM; with EKVX NSCLC, 48.7 µM; in the assay with SNB-19 CNS it was above 100 µM.

In the case of `COc1cc(C=C2C(=O)NC(=S)NC2=O)cc(OC)c1OC`, the TGI with MDA-MB-231 breast, in the assay on HCT-116 colon, in the assay on RXF 393 renal, in the assay with PC-3 prostate, in the assay with SW-620 colon and with SNB-75 CNS was above 100 µM throughout. Moreover, the TGI in the assay with MOLT-4 leukemia, in the assay on MCF7 breast, with EKVX NSCLC and with SNB-19 CNS was above 100 µM each time.

Turning to `S=C1CC(c2ccccc2)Sc2ccc(Cl)cc2N1` (configuration not stated), the TGI in the assay with MDA-MB-231 breast is above 100 µM; in the assay on HCT-116 colon, above 100 µM; in the assay with RXF 393 renal, 25.7 µM; in the assay on PC-3 prostate it was above 100 µM; in the assay with SNB-75 CNS, above 100 µM; with MOLT-4 leukemia it was above 100 µM. The TGI in the assay with MCF7 breast, with EKVX NSCLC and in the assay on SNB-19 CNS was above 100 µM each time.
